Common to all, as to assay: ≥ marks a high value that may be exact or a test limit, other limits are often not marked, values filed in µg/mL are converted to µM
In assay [1] the test system is Acinetobacter baumannii ATCC 19606.
Assay [2] deals with Candida parapsilosis ATCC 22019.
Assay [3] has as its system Enterococcus faecalis ATCC 29212.
The subject of assay [4] is Escherichia coli ATCC 25922.
The test system of assay [5] is Escherichia coli ML-35p.
The test system of assay [6] is Klebsiella pneumoniae ATCC 13883.
In assay [7] the test system is Pseudomonas aeruginosa ATCC 27853.
Assay [8] relates to Saccharomyces cerevisiae.
Assay [9] deals with Staphylococcus aureus ATCC 25923.
Assay [10] deals with Staphylococcus aureus ATCC 43300.
Assay [11] deals with Staphylococcus aureus ATCC BAA-44.
The test system of assay [12] is Staphylococcus aureus ST1065.
The subject of assay [13] is Streptococcus pyogenes ATCC 19615.
The subject of assay [14] is Bacillus cereus.
The subject of assay [15] is Escherichia coli.
Assay [16] relates to Leuconostoc lactis.
In assay [17] the test system is Listeria innocua.
For assay [18], the system named is Micrococcus luteus.
In assay [19] the test system is Pasteurella multocida.
The subject of assay [20] is Staphylococcus aureus.
For assay [21], the system named is Staphylococcus epidermidis.
Assay [22] deals with Streptococcus uberis.
The subject of assay [23] is Candida albicans NCPF 1467.
In assay [24] the test system is Escherichia coli NCTC 10418.
Assay [25] relates to Staphylococcus aureus NCTC 10788.

Drawing on DBAASP, this text covers MIC for four compounds.

The structures appear in SMILES notation. In brackets after ≈: the same amount, converted by molar mass.

Usually MIC stands for the least concentration at which growth counts as inhibited. As for `CC[C@H](C)[C@H](NC(=O)[C@H](C)NC(=O)[C@H](CC(C)C)NC(=O)[C@H](CO)NC(=O)[C@H](C)NC(=O)[C@@H](NC(=O)CNC(=O)[C@H](CO)NC(=O)[C@@H](NC(=O)[C@@H](NC(=O)[C@H](Cc1cnc[nH]1)NC(=O)[C@@H]1CCCN1C(=O)[C@@H](NC(=O)[C@H](CC(C)C)NC(=O)[C@H](CO)NC(=O)[C@H](CC(C)C)NC(=O)[C@@H](N)Cc1ccccc1)[C@@H](C)CC)[C@@H](C)CC)C(C)C)C(C)C)C(=O)N[C@@H](Cc1cnc[nH]1)C(=O)N[C@@H](Cc1ccccc1)C(N)=O` [FLSLIPHIVSGVASLAIHF], the minimal inhibitory concentration (MIC) was > 200 µM in assay [1]; ≥ 200 µM in assay [2]; > 200 µM in [3]; > 200 µM in [4]; ≥ 200 µM in assay [5]; ≥ 200 µM in assay [6]. Further, the MIC in assay [7] was > 200 µM; in [8] it was ≥ 200 µM; in [9], > 200 µM; in assay [10], > 200 µM; in [11], ≥ 200 µM; in assay [12], ≥ 200 µM. In assay [13], this compound registered an MIC of 12.5 µM (≈ 25.3 µg/mL).

Consider `CC[C@H](C)[C@H](NC(=O)[C@H](CC(N)=O)NC(=O)[C@H](CCCCN)NC(=O)[C@@H](NC(=O)[C@@H](NC(=O)[C@H](CC(=O)O)NC(=O)[C@H](Cc1ccccc1)NC(=O)[C@H](CC(C)C)NC(=O)CN)[C@@H](C)CC)[C@@H](C)CC)C(=O)N[C@@H](Cc1ccccc1)C(=O)N[C@@H](CO)C(=O)NCC(=O)N[C@@H](CC(C)C)C(N)=O` [GLFDIIKNIFSGL], for which the MIC in assay [14] is ≥ 69.6 µM; in assay [15], > 69.6 µM; in assay [16], 17.4 µM (≈ 25 µg/mL); in assay [17] it was ≥ 69.6 µM; in assay [18] it was ≥ 69.6 µM; in assay [19], ≥ 69.6 µM. Further, the MIC was 69.6 µM (≈ 99.9 µg/mL) in assay [20], ≥ 69.6 µM in assay [21] and ≥ 69.6 µM in assay [22].

In the case of `CC[C@H](C)[C@H](NC(=O)[C@H](CC(=O)O)NC(=O)[C@H](Cc1ccccc1)NC(=O)[C@H](CC(C)C)NC(=O)CN)C(=O)N[C@H](C(=O)N[C@@H](CCCCN)C(=O)N[C@@H](CCCCN)C(=O)N[C@H](C(=O)N[C@H](C(=O)NCC(=O)N[C@H](C(=O)N[C@H](C(=O)N[C@@H](C)C(=O)NCC(=O)N[C@@H](CC(C)C)C(N)=O)[C@@H](C)CC)[C@@H](C)O)C(C)C)C(C)C)C(C)C` [GLFDIVKKVVGTIAGL], the minimum inhibitory concentration (MIC) is 15.3 µM (≈ 25 µg/mL) in assay [14]; > 61.4 µM in assay [15]; 7.36 µM (≈ 12 µg/mL) in assay [16]; ≥ 61.4 µM in assay [17]; 15.3 µM (≈ 25 µg/mL) in assay [18]; ≥ 61.4 µM in [19]. Also, the MIC in assay [20], in assay [21] and in assay [22] was 15.3 µM (≈ 25 µg/mL) each time.

Regarding `CC[C@H](C)[C@H](NC(=O)[C@H](CO)NC(=O)[C@H](C)NC(=O)[C@@H](NC(=O)CNC(=O)[C@H](CO)NC(=O)[C@@H](NC(=O)[C@@H](NC(=O)[C@H](Cc1cnc[nH]1)NC(=O)[C@@H]1CCCN1C(=O)[C@@H](NC(=O)[C@H](CC(C)C)NC(=O)[C@H](CO)NC(=O)[C@H](CC(C)C)NC(=O)[C@@H](N)Cc1ccccc1)[C@@H](C)CC)[C@@H](C)CC)C(C)C)C(C)C)C(=O)N[C@@H](C)C(=O)N[C@@H](CCCCN)C(=O)N[C@@H](Cc1cnc[nH]1)C(=O)N[C@@H](Cc1ccccc1)C(N)=O` [FLSLIPHIVSGVASIAKHF], the MIC in [1] is 6.25 µM (≈ 12.7 µg/mL); in [23], ≥ 100 µM; in [2], ≥ 100 µM; in assay [3], 25 µM (≈ 50.9 µg/mL); in [4] it was 70 µM (≈ 142 µg/mL); in assay [5] it was ≥ 100 µM. Besides, the minimal inhibitory concentration (MIC) in assay [24] was ≥ 80 µM; in assay [6] it was ≥ 100 µM; in [7], > 100 µM; in [8], 12.5 µM (≈ 25.4 µg/mL); in assay [9], 6.25 µM (≈ 12.7 µg/mL); in assay [10], 6.25 µM (≈ 12.7 µg/mL). In addition, the MIC in [11] turned out to be 6.25 µM (≈ 12.7 µg/mL); in [25], 5 µM (≈ 10.2 µg/mL); in assay [12] it was 6.25 µM (≈ 12.7 µg/mL); in [13], 3.12 µM (≈ 6.35 µg/mL).
